Assay results from publication PMC9000418 (Molecules, 2022).
Read-outs that look alike come from different tables or passages of the source.

Legend:
AChE = AChE (Electrophorus electricus, UniProt O42275); assay: AChE inhibition, in vitro modified Ellman's spectrophotometric method; type: biochemical; details: read-out: AChE % Inhibition
Source text: The assay was completed in two steps.
The reagents and materials used in the enzyme inhibition assay were supplied commercially by Sigma-Aldrich (St. Louis, MO, USA) and Fluka (Steinheim, Germany). The cholinesterase enzyme inhibition procedure was applied as reported in our previous research papers.

BChE = type: biochemical
Method: The inhibitory activities of all of the obtained chalcone derivatives (3a–3j) against cholinesterase enzymes were evaluated using the previously described in vitro modified Ellman’s spectrophotometric method.
The assay was completed in two steps. […].
[…]. The reagents and materials used in the enzyme inhibition assay were supplied commercially by Sigma-Aldrich (St. Louis, MO, USA) and Fluka (Steinheim, Germany). The cholinesterase enzyme inhibition procedure was applied as reported in our previous research papers.

[1] = In vitro BBB permeability assay (PAMPA); type: in vitro ADME; details: for Type of BBB Permeation: PAMPA, PBS pH 7.4, donor 100 μM; for BBB permeability (in words): in vitro PAMPA
Method: As it is known, the ability of drugs to be used in diseases related to the central nervous system to pass the blood–brain barrier is an indispensable feature. These properties of the synthesized compounds were estimated using physicochemical parameters. […].
To observe the BBB permeability of the active compounds 3i and 3j, the parallel artificial membrane permeability assay (PAMPA) was performed as previously described. Briefly, the solutions of each compound were prepared in dimethyl sulfoxide (DMSO) at 10 mM and then diluted with PBS (Phosphate-Buffered Saline; pH = 7.4) to obtain the donor drug solution with the nominal final concentration of 100 μM (297 μL of buffer + 3 μL of DMSO drug solution). An amount of 100 μM is suitable for direct HPLC-DAD measurements. This solution was shaken for 1 h at room temperature in a 96-well polypropylene plate (Agilent, Waldbronn, Germany) and then filtered to avoid solid particles. The data were measured in 3 replicates on each plate. After the preparation of the solutions, the assay procedure was performed according to the kit method.

[2] = Cytotoxicity MTT assay in NIH/3T3 cell line; type: cell-based; details: mouse, NIH/3T3 mouse embryonic fibroblast cells, read-out: IC50 against NIH/3T3 cells (cytotoxicity)
Method: The NIH/3T3 mouse embryonic fibroblast cell line (ATCC® CRL-1658™, London, UK) was used for cytotoxicity assays. The incubation period of NIH/3T3 cells was based on the supplier’s recommendation. NIH/3T3 cells were seeded at 1 × 10^4 cells into each well of the 96-well plates. The MTT assay was carried out in accordance with the standards previously described.

[3] = DPPH free radical scavenging antioxidant activity
Source text: This activity method is a method based on measuring the scavenging effects of the DPPH• (1,1-Diphenyl-2-picrylhydrazil) radical, which is a stable organic nitrogen radical of antioxidants. One of the few stable organic nitrogen radicals, the DPPH• radical is dark violet in color. This method, which is based on the scavenging of the DPPH radical via antioxidants, is a redox reaction. When this radical interacts with hydrogen donors, it is reduced to hydrazine. The dark purple color of the methanolic DPPH• solution turns yellow with the addition of antioxidants, and the change in absorbance is measured spectrophotometrically. More illumination is determined by a greater reduction in the absorbance of the reaction mixture and indicates higher radical scavenging capacity.
For the DPPH free radical scavenging activity test, test compounds were prepared at 10 µM, 1 µM, 0.1 µM, and 0.01 µM concentrations, as shown in Figure 3. By using the absorbance changes determined because of the spectroscopic measurement, the % DPPH free radical scavenging activities of the synthesized compounds and reference materials (ascorbic acid and citric acid) were determined. The % antioxidant activities of all tested compounds were calculated based on the control.
This is a method based on measuring the scavenging effects of the DPPH (1,1-Diphenyl-2- picrylhydrazyl) radical, a stable organic nitrogen-centered free radical. To prepare the DPHH solution, 9.86 mg of DPPH was measured and topped up to 25 mL with methanol. A total of 100 µL of DPPH solution and 100 µL of the test solutions were placed in the test wells. Only 200 µL of methanol was used for blank reading; 100 µL of methanol and 100 µL of DPPH solution were used for control. After incubation, spectrophotometric reading was performed at 517 nm.

AChE, sequence (O42275 24-633): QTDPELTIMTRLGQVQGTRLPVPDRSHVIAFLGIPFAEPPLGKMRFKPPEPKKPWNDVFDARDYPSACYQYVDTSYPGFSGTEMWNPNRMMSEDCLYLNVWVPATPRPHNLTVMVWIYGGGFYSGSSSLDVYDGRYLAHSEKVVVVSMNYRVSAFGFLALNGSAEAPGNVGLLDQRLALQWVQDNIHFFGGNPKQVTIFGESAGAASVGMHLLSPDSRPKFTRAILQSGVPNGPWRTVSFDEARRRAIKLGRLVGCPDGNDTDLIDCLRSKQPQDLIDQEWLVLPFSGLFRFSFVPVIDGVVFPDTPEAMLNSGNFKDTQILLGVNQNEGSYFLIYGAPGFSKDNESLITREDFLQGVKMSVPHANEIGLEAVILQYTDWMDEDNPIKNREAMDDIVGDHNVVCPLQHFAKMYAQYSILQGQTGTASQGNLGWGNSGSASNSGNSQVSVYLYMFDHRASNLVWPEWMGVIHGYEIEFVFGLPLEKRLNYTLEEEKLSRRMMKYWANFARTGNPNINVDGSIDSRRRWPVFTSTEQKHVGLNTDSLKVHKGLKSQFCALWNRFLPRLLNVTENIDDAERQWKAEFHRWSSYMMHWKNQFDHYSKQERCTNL

| Compound | inhibition at 100 µM (AChE) | inhibition at 1000 µM (AChE) | BChE % Inhibition (BChE; 10^−3 M) | BChE % Inhibition (BChE; 10^−4 M) | Type of BBB Permeation [1] | BBB permeability (in words) [1] | IC50 [2] | % DPPH free radical scavenging (inhibition) ([3]; 0.01 µM) | % DPPH free radical scavenging (inhibition) ([3]; 0.1 µM) | % DPPH free radical scavenging (inhibition) ([3]; 1 µM) | % DPPH free radical scavenging (inhibition) ([3]; 10 µM) |
| --- | --- | --- | --- | --- | --- | --- | --- | --- | --- | --- | --- |
| CCCNc1nnc(SCC(=O)c2ccc3c(c2)NC(=O)CS3)s1 [Compound 3b, 6-(2-((5-(Propylamino)-1,3,4-thiadiazol-2-yl)sulfanyl)acetyl)-2H-benzo[b][1,4]thiazin-3(4H)-one] | 45.6 ± 0.9% | 75.4 ± 1.4% | 34.9 ± 0.8% | 26.9 ± 0.6% |  |  |  |  |  |  |  |
| O=C1CSc2ccc(C(=O)CSc3nnc(Nc4ccc(Cl)cc4)s3)cc2N1 [Compound 3j, 6-(2-((5-((4-chlorophenyl)amino)-1,3,4-thiadiazol-2-yl)sulfanyl)acetyl)-2H benzo[b][1,4]thiazin-3(4H)-one] | 92.3 ± 1.3% | 96.5 ± 1.2% | 42.5 ± 0.9% | 27.9 ± 0.7% | CNS+ High BBB permeation (High BBB permeation Pe (10^−6 cm s^−1) > 4.0) | high BBB permeability | 160 ± 5.53 µM | 68.00% ± 1.50 | 73.00% ± 1.40 | 85.00% ± 2.00 | 92.00% ± 1.80 |
| CCCCNc1nnc(SCC(=O)c2ccc3c(c2)NC(=O)CS3)s1 [Compound 3d, 6-(2-((5-(Butylamino)-1,3,4-thiadiazol-2-yl)sulfanyl)acetyl)-2H-benzo[b][1,4]thiazin-3(4H)-one] | 47.3 ± 0.9% | 72.7 ± 1.5% | 36.1 ± 0.9% | 21.4 ± 0.9% |  |  |  |  |  |  |  |
| O=C1CSc2ccc(C(=O)CSc3nnc(Nc4ccccc4)s3)cc2N1 [Compound 3g, 6-(2-((5-(Phenylamino)-1,3,4-thiadiazol-2-yl)sulfanyl)acetyl)-2H-benzo[b][1,4]thiazin-3(4H)-one] | 44.5 ± 0.8% | 80.1 ± 1.2% | 39.6 ± 0.9% | 24.8 ± 0.8% |  |  |  |  |  |  |  |
| CCNc1nnc(SCC(=O)c2ccc3c(c2)NC(=O)CS3)s1 [Compound 3a, 6-(2-((5-(Ethylamino)-1,3,4-thiadiazol-2-yl)sulfanyl)acetyl)-2H-benzo[b][1,4]thiazin-3(4H)-one] | 48.8 ± 0.8% | 78.2 ± 1.2% | 31.8 ± 0.8% | 25.1 ± 0.8% |  |  |  |  |  |  |  |
| O=C1CSc2ccc(C(=O)CSc3nnc(NC4CCCCC4)s3)cc2N1 [Compound 3f, 6-(2-((5-(Cyclohexylamino)-1,3,4-thiadiazol-2-yl)sulfanyl)acetyl)-2H-benzo[b][1,4]thiazin-3(4H)-one] | 45 ± 1% | 65.4 ± 1.3% | 30.5 ± 0.8% | 26.2 ± 0.8% |  |  |  |  |  |  |  |
| Cc1ccc(Nc2nnc(SCC(=O)c3ccc4c(c3)NC(=O)CS4)s2)cc1 [Compound 3h, 6-(2-((5-(p-Tolylamino)-1,3,4-thiadiazol-2-yl)sulfanyl)acetyl)-2H-benzo[b][1,4]thiazin-3(4H)-one] | 42.7 ± 0.8% | 82.2 ± 1.8% | 35.6 ± 0.7% | 23.5 ± 0.7% |  |  |  |  |  |  |  |
| CC(C)Nc1nnc(SCC(=O)c2ccc3c(c2)NC(=O)CS3)s1 [Compound 3c, 6-(2-((5-(Isopropylamino)-1,3,4-thiadiazol-2-yl)sulfanyl)acetyl)-2H-benzo[b][1,4]thiazin-3(4H)-one] | 40.1 ± 0.9% | 70.6 ± 1% | 29.1 ± 0.8% | 20.4 ± 0.7% |  |  |  |  |  |  |  |
| COc1ccc(Nc2nnc(SCC(=O)c3ccc4c(c3)NC(=O)CS4)s2)cc1 [Compound 3i, 6-(2-((5-((4-Methoxyphenyl)amino)-1,3,4-thiadiazol-2-yl)sulfanyl)acetyl)-2H-benzo[b][1,4]thiazin-3(4H)-one] | 90.5 ± 1.1% | 93.2 ± 1.4% | 40.2 ± 0.9% | 28.0 ± 0.8% | CNS+ High BBB permeation (High BBB permeation Pe (10^−6 cm s^−1) > 4.0) | high BBB permeability | 98.3 ± 3.98 µM | 65.00% ± 1.10 | 75.00% ± 1.80 | 82.00% ± 1.20 | 90.00% ± 2.40 |
| CC(C)CNc1nnc(SCC(=O)c2ccc3c(c2)NC(=O)CS3)s1 [Compound 3e, 6-(2-((5-(Isobutylamino)-1,3,4-thiadiazol-2-yl)sulfanyl)acetyl)-2H-benzo[b][1,4]thiazin-3(4H)-one] | 46.2 ± 0.8% | 69.9 ± 1.2% | 37.3 ± 0.8% | 24.6 ± 0.9% |  |  |  |  |  |  |  |
